Assay results as given in patent US20230126447A1, “OCULAR DRUG DEPOT FOR COMPLEMENT-MEDIATED DISORDERS” (priority 2020, published 2023).
Values joined by “and” are separate entries in the source; they are usually repeats but may differ in a detail not shown here. Identical values can stand only once. Like-named read-outs stand apart in the source and are kept apart here.

Tests used:
[1] = QWBA tissue distribution of [14C] Compound 1, pigmented Long-Evans rats (PO, IV); format: in vivo; conditions: male LE rats, 20 mg/kg PO
Experimental: (§1) This study was conducted to determine the tissue distribution of drug-related radioactivity following a single oral (PO) (20 mg/kg) or intravenous (IV) (5 mg/kg) administration of [^14C]
(§2) Ten adult male pigmented Long-Evans (LE) rats (Group 1), 1 adult male LE rat (Group 2), and 3 albino Wistar Han (WH) rats (Group 3) received a single oral 20 mg/kg (Groups 1 and 3) or IV 5 mg/kg (Group 2) dose of [^14C] […] The formulation was prepared at a target dose of 5 mg (IV) or 20 mg (PO) […]
(§3) The carcasses were frozen in hexane dry-ice and stored at or below −20° C. prior to processing for QWBA. Each carcass was embedded, cut into sagittal sections, and mounted for QWBA. […] The lower limit of quantitation was 0.105 μg equiv/g.

[2] = QWBA tissue distribution of [14C] Compound 1, albino Wistar Han rats (PO); format: in vivo; conditions: albino male WH rats, 20 mg/kg PO
Experimental: as §1, §2, §3

[3] = Phase 1 single ascending dose plasma pharmacokinetics in healthy volunteers; format: in vivo, human
Experimental: This study was conducted in healthy human volunteers in a randomized, double-blind design. Compound 1 or placebo was administered as a single oral dose to twenty-eight healthy volunteers in three separate dose groups. […] Pharmacokinetic data from each volunteer is summarized in Table 29, and plasma concentration data is shown graphically in FIG. 19.

[4] = In vitro binding to melanin from Sepia officinalis; conditions: S. officinalis melanin 50 μg/mL, PBS, 37° C., 1 hour
Experimental: […] The melanin solution was stored in the dark at 37° C. until use.
Immediately after the assay, samples were added to an equal volume of warm PBS, aliquots (3 μL each) were removed, added to 100 μL of acetonitrile containing carbutamide as internal standard, and then diluted with water (197 μL). These time-zero samples, prepared in PBS only, were also used as calibration standards.
The assay plates containing samples with and without melanin were incubated in the dark with shaking at 37° C. for 1 hour. Following incubation, the samples were centrifuged for 15 minutes at approximately 4000 rpm at 37° C. to sediment the melanin. Sample supernatant (3 μL) was added to 100 μL of acetonitrile containing the internal standard and then diluted with water (197 μL).
The column was set to a temperature of 55° C. […]
Analytes and internal standards were detected using an Applied Biosystems Sciex API-5500 triple quadrupole mass spectrometer with Agilent 1260 Infinity Binary Pump and Apricot Designs ADDA High-Speed Dual Arm Autosampling System. The instrument was equipped with an electrospray ionization source (600° C.) operated in the positive ion mode. Analytes and internal standards for all samples were monitored in the multiple-reaction-monitoring scan mode.

AP activity = assay: cells; conditions: Erythrocyte, read-out: IC50 for PNH erythrocyte hemolysis
[5] = Group 1, 200 mg single oral dose, individual subjects
[6] = Group 2, 600 mg single oral dose, individual subjects
[7] = Group 3, 1200 mg single oral dose, individual subjects

CC(=O)c1nn(CC(=O)N2C[C@H](F)C[C@H]2C(=O)Nc2cccc(Br)n2)c2ccc(-c3cnc(C)nc3)cc12 [Compound 1, (2S,4R)-1-(2-(3-Acetyl-5-(2-methylpyrimidin-5-yl)-1H-indazol-1-yl)acetyl)-N-(6-bromopyridin-2-yl)-4-fluoropyrrolidine-2-carboxamide]
Concentration of radioactivity at Tmax, adrenal gland cortex [1]: 33.5 μg equiv/g | Concentration of radioactivity at Tmax, liver [1]: 52.0 μg equiv/g | Concentration of radioactivity at Tmax, small intestine [1]: 77.9 μg equiv/g | Concentration of radioactivity at Tmax, stomach [1]: 374 μg equiv/g | Concentration of radioactivity at Tmax, tissues with the lowest concentrations (brain, spinal cord, bone, testis, lens of the eye) [1]: < 1.00 μg equiv/g | Concentration of radioactivity at Tmax, urinary bladder [1]: 54.2 μg equiv/g | Concentration of radioactivity at Tmax, white adipose [1]: 21.1 μg equiv/g | t1/2, eye uvea [1]: 576 h | t1/2, liver [1]: 48.5 h | t1/2, pigmented skin [1]: 472 h | Concentration of radioactivity at Tmax, bile ([1]; 1 h): 232 μg equiv/g | Highest concentration of radioactivity in blood ([1]; 1 h post-dose): 5.28 μg equiv/g | Concentration of radioactivity at Tmax, urine ([1]; 4 h): 66.2 μg equiv/g | Concentration of radioactivity in blood ([1]; 8 h post-dose): 0.184 μg equiv/g | Tissues with quantifiable concentrations at 672 h ([1]; 672 h): Only eye (uvea) and pigmented skin | Concentration of radioactivity at Tmax, non-pigmented skin [2]: 2.98 μg equiv/g | Concentration of radioactivity at Tmax, uvea of the non-pigmented eye [2]: 1.68 μg equiv/g | Highest concentration of radioactivity in blood ([2]; 1 h post-dose): 2.77 μg equiv/g | Concentration of radioactivity, uvea of the non-pigmented eye ([2]; 24 h): BQL | Concentration of radioactivity, non-pigmented skin ([2]; 168 h): BQL | AUC(0-24) [3, 5]: 3387.20 ng·h/mL and 4128.01 ng·h/mL and 2339.30 ng·h/mL and 3615.79 ng·h/mL and 1888.95 ng·h/mL and 2229.07 ng·h/mL | AUC(0-∞) [3, 5]: 3616.53 ng·h/mL and 4241.37 ng·h/mL and 2569.69 ng·h/mL and 3822.48 ng·h/mL and 1993.07 ng·h/mL and 2385.64 ng·h/mL | Cmax [3, 5]: 950 ng/mL and 2060 ng/mL and 764 ng/mL and 1380 ng/mL and 635 ng/mL and 562 ng/mL | Tmax [3, 5]: 1.25 h | AUC(0-24) [3, 6]: 6591.55 ng·h/mL and 6135.83 ng·h/mL and 6020.33 ng·h/mL and 4079.30 ng·h/mL and 7288.50 ng·h/mL | AUC(0-∞) [3, 6]: 6805.91 ng·h/mL and 7335.98 ng·h/mL and 6903.06 ng·h/mL and 4687.40 ng·h/mL and 8671.53 ng·h/mL | Cmax [3, 6]: 2480 ng/mL and 2100 ng/mL and 1380 ng/mL and 1810 ng/mL | Tmax [3, 6]: 2.00 h and 1.25 h | AUC(0-24) [3, 7]: 11822.00 ng·h/mL and 10219.40 ng·h/mL and 8431.90 ng·h/mL and 11357.50 ng·h/mL and 14054.00 ng·h/mL | AUC(0-∞) [3, 7]: 13297.29 ng·h/mL and 10982.71 ng·h/mL and 10243.93 ng·h/mL and 13190.18 ng·h/mL and 15424.93 ng·h/mL | Cmax [3, 7]: 3080 ng/mL and 3230 ng/mL and 3530 ng/mL and 1940 ng/mL and 2530 ng/mL and 4100 ng/mL | AUC(0-t) ([3]; human, po, 200 mg, Group 1, 200 mg single oral dose, Mean (N 6), read-out: AUC(0-24)): 2930 ng·h/mL | AUC(0-inf) ([3]; human, po, 200 mg, Group 1, 200 mg single oral dose, Mean (N 6), read-out: AUC(0-∞)): 3100 ng·h/mL | Cmax ([3]; human, po, 200 mg, Group 1, 200 mg single oral dose, Mean (N 6), read-out: Cmax): 1060 ng/mL | Tmax ([3]; human, po, 200 mg, Group 1, 200 mg single oral dose, Mean (N 6), read-out: Tmax): 1.79 h | Tmax ([3]; human, po, 200 mg, Group 1, 200 mg single oral dose, individual subjects, read-out: Tmax): 1.5 h | AUC(0-t) ([3]; human, po, 200 mg, Group 1, 200 mg single oral dose, read-out: Mean AUC(0-24)): 2390 ng·h/mL | AUC(0-inf) ([3]; human, po, 200 mg, Group 1, 200 mg single oral dose, read-out: Mean AUC(0-∞)): 3020 ng·h/mL | Cmax ([3]; human, po, 200 mg, Group 1, 200 mg single oral dose, read-out: Mean Cmax): 1060 ng/mL | AUC(0-t) ([3]; human, po, 600 mg, Group 2, 600 mg single oral dose, Mean (N 6), read-out: AUC(0-24)): 6190 ng·h/mL | AUC(0-inf) ([3]; human, po, 600 mg, Group 2, 600 mg single oral dose, Mean (N 6), read-out: AUC(0-∞)): 7090 ng·h/mL | Cmax ([3]; human, po, 600 mg, Group 2, 600 mg single oral dose, Mean (N 6), read-out: Cmax): 2020 ng/mL | Tmax ([3]; human, po, 600 mg, Group 2, 600 mg single oral dose, Mean (N 6), read-out: Tmax): 1.63 h | AUC(0-t) ([3]; human, po, 600 mg, Group 2, 600 mg single oral dose, individual subjects, read-out: AUC(0-24)): 7020 ng·h/mL | AUC(0-inf) ([3]; human, po, 600 mg, Group 2, 600 mg single oral dose, individual subjects, read-out: AUC(0-∞)): 8160 ng·h/mL | Cmax ([3]; human, po, 600 mg, Group 2, 600 mg single oral dose, individual subjects, read-out: Cmax): 2180 ng/mL | AUC(0-t) ([3]; human, po, 600 mg, Group 2, 600 mg single oral dose, read-out: Mean AUC(0-24)): 6190 ng·h/mL | AUC(0-inf) ([3]; human, po, 600 mg, Group 2, 600 mg single oral dose, read-out: Mean AUC(0-∞)): 7090 ng·h/mL | Cmax ([3]; human, po, 600 mg, Group 2, 600 mg single oral dose, read-out: Mean Cmax): 2020 ng/mL | AUC(0-t) ([3]; human, po, 1200 mg, Group 3, 1200 mg single oral dose, Mean (N 6), read-out: AUC(0-24)): 11400 ng·h/mL | AUC(0-inf) ([3]; human, po, 1200 mg, Group 3, 1200 mg single oral dose, Mean (N 6), read-out: AUC(0-∞)): 13200 ng·h/mL | Cmax ([3]; human, po, 1200 mg, Group 3, 1200 mg single oral dose, Mean (N 6), read-out: Cmax): 3070 ng/mL | Tmax ([3]; human, po, 1200 mg, Group 3, 1200 mg single oral dose, Mean (N 6), read-out: Tmax): 2.5 h | AUC(0-t) ([3]; human, po, 1200 mg, Group 3, 1200 mg single oral dose, individual subjects, read-out: AUC(0-24)): 12700 ng·h/mL | AUC(0-inf) ([3]; human, po, 1200 mg, Group 3, 1200 mg single oral dose, individual subjects, read-out: AUC(0-∞)): 15800 ng·h/mL | Tmax ([3]; human, po, 1200 mg, Group 3, 1200 mg single oral dose, individual subjects, read-out: Tmax): 2.5 h | AUC(0-t) ([3]; human, po, 1200 mg, Group 3, 1200 mg single oral dose, read-out: Mean AUC(0-24)): 11400 ng·h/mL | AUC(0-inf) ([3]; human, po, 1200 mg, Group 3, 1200 mg single oral dose, read-out: Mean AUC(0-∞)): 13200 ng·h/mL | Cmax ([3]; human, po, 1200 mg, Group 3, 1200 mg single oral dose, read-out: Mean Cmax): 3070 ng/mL | Bmax (binding capacity) [4]: 137 nmol/mg melanin | IC50 (AP activity): 14 nM
